Results on 5 compounds are retold here after BindingDB's records for doi:10.1016/S0960-894X(96)00246-6 (1996).

This test is described as follows: Inhibition of ADP-induced human platelet aggregation.

Structures are written as SMILES.

In general, IC50 refers to the concentration that gives 50% inhibition. Read a high IC50 as lower potency. As to `CC(C)(C)[C@H](NC(=O)[C@H](CC(=O)O)NC(=O)CCCOc1ccc(C(=N)N)cc1)C(=O)O`, the IC50 worked out at 230 nM. This lies in the sub-micromolar range.

With `CC(C)[C@H](NC(=O)[C@H](CC(=O)O)NC(=O)CCCOc1ccc(C(=N)N)cc1)C(=O)O` [2-{2-[4-(4-Carbamimidoyl-phenoxy)-butyrylamino]-3-carboxy-propionylamino}-3-methyl-butyric acid (FK633)], the IC50 came out at 100 nM. Compared with the last compound, the IC50 is about 2.3-fold lower.

With `CC(C)C[C@H](NC(=O)[C@H](CC(=O)O)NC(=O)CCCOc1ccc(C(=N)N)cc1)C(=O)O` [(S)-2-{(S)-2-[4-(4-Carbamimidoyl-phenoxy)-butyrylamino]-3-carboxy-propionylamino}-4-methyl-pentanoic acid], the IC50 was 130 nM.

Compound `CN(C(=O)[C@H](CC(=O)O)NC(=O)CCCOc1ccc(C(=N)N)cc1)[C@@H](Cc1ccc(O)cc1)C(=O)O` [(S)-3-[4-(4-Carbamimidoyl-phenoxy)-butyrylamino]-N-[(S)-1-carboxy-2-(4-hydroxy-phenyl)-ethyl]-N-methyl-succinamic acid] yielded an IC50 of 120 nM.

The compound `COc1ccc(C[C@H](NC(=O)[C@H](CC(=O)O)NC(=O)CCCCOc2ccc(C(=N)N)cc2)C(=O)O)cc1` [(S)-3-[5-(4-Carbamimidoyl-phenoxy)-pentanoylamino]-N-[(S)-1-carboxy-2-(4-methoxy-phenyl)-ethyl]-succinamic acid] registered a 50% inhibitory concentration (IC50) of 4500 nM.
